Assay: xn = mol fraction of the nth substance listed
Settings: 298.15 K, 101 kPa

CC(=O)[O-].CC[NH2+]CC + O
Settings	electrical conductivity [S/m]	viscosity [mPa·s]
x1 = 0.0079	1.4	–
x1 = 0.0285	2.35	–
x1 = 0.0365	2.46	–
x1 = 0.0444	2.49	–
x1 = 0.0602	2.47	–
x1 = 0.0777	2.33	–
x1 = 0.098	–	5.81
x1 = 0.298	–	26.8
x1 = 0.2995	0.965	–
x1 = 0.3994	0.669	–
x1 = 0.403	–	40.7
x1 = 0.4992	0.525	–
x1 = 0.501	–	48.1
x1 = 0.597	–	53.1
x1 = 0.599	0.407	–
x1 = 0.662	–	54.6
x1 = 0.794	0.308	–
x1 = 0.805	–	55.7
x1 = 0.8986	0.282	–
x2 = 0.0048	0.262	–
